# Test results published in PMC9377006, “Discovery of Desmuramylpeptide NOD2 Agonists with Single-Digit Nanomolar Potency” (ACS Medicinal Chemistry Letters, 2022).
# Tested on: K562 cancer cells
# Test: PBMC cytotoxicity against K562 cancer cells
# Type: cell-based
# Description: In addition, we also investigated the ability of 40, both alone and in combination with LPS and IFN-γ, to induce direct and nonspecific cytolytic activity of PBMCs against cancer cells. For this purpose, we used a functional cytotoxicity assay based on the coincubation of preactivated PBMCs and fluorescently labeled K562 cancer cells.[33] Among the heterogeneous subpopulations of PBMCs, natural killer (NK) cells and, to a lesser extent, monocytes represent the main effector cell types in this assay. NK cells play an essential role in tumor and viral immunosurveillance, both through direct cytolytic destruction of aberrant cells and by facilitating the recruitment and activation of other immune cells through the secretion of cytokines.[34] In addition to their well-established role in cancer immunotherapy, NK cells thus also provide an attractive target in the development of vaccine adjuvants, particularly when Th1 cellular immune responses are preferred.[35] Other cell populations, however, may contribute to the magnitude of NK cell-mediated responses via cytokine secretion. To account for the contribution of these accessory cells and to more accurately represent in vivo conditions, the entire PBMC population was used instead of isolated NK cells.
# Figure 3 2 and 40 synergize with LPS and IFN-γ to induce the cytotoxicity of PBMCs against K562 cancer cells. Following 18 h of stimulation of PBMCs with 2 (1 μM) or 40 (1 μM) in the presence or absence of LPS (1 μg/mL) and IFN-γ (200 U/mL) or the corresponding vehicle (0.1% DMSO; NT), K562 cells were added in a 40:1 effector to target cell ratio. Cytotoxicity was determined after 4 h of coincubation. IL-2 (200 U/mL) was used as the positive control. Data are shown as relative activities to vehicle-treated control (0.1% DMSO) and are the means ± SEMs of duplicates of two independent experiments. Statistical significance was determined by one-way ANOVA followed by Dunnet’s multiple-comparisons test; **, p < 0.01, ***, p < 0.001. […]
# 4.8 Peripheral blood mononuclear cell cytotoxicity
# The PBMC cytotoxicity assays using K562 cells were performed as described previously, with some modifications.2 PBMCs were seeded (400,000 cells/well) in duplicates in 96 -well U-bottom plates and treated with 2 (1 µM) or 40 (1 µM), in the presence or absence of LPS (1 µg/mL) or IFN-γ (200 U/mL), IL-2 (200 U/mL), or the corresponding vehicle (0.1% DMSO) for 18 h. K562 were stained with carboxyfluorescein succinimidyl ester (CFSE, Invitrogen, Carlsbad, CA, USA), washed twice with complete medium, and added (10,000 cells/well) to the pre-treated PBMCs for a final effector cell to target tumor cell ratio of 40:1. After a 4 h coincubation (37 °C, 5% CO2), cells were stained with Sytox Blue dead cell stain (Invitrogen) and analyzed using an Attune NxT flow cytometer (Thermo Fisher Scientific, Waltham, MA, USA) and FlowJo software (Tree Star, Inc., Ashland, OR, USA). Cells that were positive for both CFSE and Sytox Blue were defined as dead K562 cells. PBMCs alone and CFSE-labeled K562 cells alone were also treated with the compounds at the same concentrations and stained with Sytox Blue to exclude any direct cytotoxicity of the compounds towards the PBMCs and cancer cells.
# 4.9 Cytokine release from peripheral blood mononuclear cells […]
structure (smiles),measurement,setting,value
CCOC(=O)CC[C@@H](NC(=O)[C@@H](NC(=O)CNC(=O)/C=C/c1ccc(OC(=O)CC23CC4CC(CC(C4)C2)C3)c(OC)c1)C(C)C)C(=O)OCC [Compound 40],"LPS- and IFN-γ-induced cytotoxic activity of PBMCs against K562, costimulation","1 μM + LPS 1 μg/mL or IFN-γ 200 U/mL, 18 h, 40:1, 4 h",significantly enhanced
same,"cytotoxic activity of PBMCs with costimuli, compared to 2",1 μM + LPS or IFN-γ,slightly stronger activity
same,increase in the ratio of dead K562 cells,"PBMCs stimulated 18 h with 1 μM compound alone, 40:1 effector to target ratio, 4 h coincubation, relative to vehicle",1.28 fold
same,apoptosis in K562 cells in the absence of PBMCs,"cotreatment with 40 and IFN-γ, data not shown",did not induce apoptosis
